Target: T1, Rat liver microsomal squalene synthetase (Rattus norvegicus, UniProt Q02769)
T1 construct: Rat liver microsome, the source of enzyme; from tissue; host or cells: rat liver microsomes
T1 sequence (Q02769 1-416): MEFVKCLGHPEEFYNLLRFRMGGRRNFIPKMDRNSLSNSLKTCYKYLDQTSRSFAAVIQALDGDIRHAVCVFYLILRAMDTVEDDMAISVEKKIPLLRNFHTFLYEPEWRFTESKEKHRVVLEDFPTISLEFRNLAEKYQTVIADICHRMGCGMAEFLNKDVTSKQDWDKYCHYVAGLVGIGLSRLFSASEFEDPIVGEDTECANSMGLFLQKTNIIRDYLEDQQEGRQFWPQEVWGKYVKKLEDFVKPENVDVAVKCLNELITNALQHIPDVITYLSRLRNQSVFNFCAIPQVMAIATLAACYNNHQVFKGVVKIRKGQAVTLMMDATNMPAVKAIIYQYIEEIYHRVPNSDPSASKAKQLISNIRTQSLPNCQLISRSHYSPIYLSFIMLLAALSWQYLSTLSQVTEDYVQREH
Experiment: In vitro inhibition of squalene synthetase
Type: biochemical
Conditions: 10 µM test compound; rat liver microsomes, labelled farnesyl pyrophosphate, 10 minutes at 37 °C; compared to controls with no test compound
Experimental: In vitro inhibition of squalene synthetase may be measured by the following procedure. Rat liver microsomal squalene synthetase activity was measured using farnesyl pyrophosphate as a substrate and quantitating squalene synthesis using labelled farnesyl pyrophosphate and counting the squalene formed. Rat liver microsome, the source of enzyme, was prepared according to the method of Gillies, P. J., et al., Exp. Molc. Pathol. 44: 329-339 (1986), a modification of the procedure of Erickson, S. K., and Cooper, A. D., Metabolism, 29: 991-996 (1980). […] Oxygen was excluded from the closed incubation tube by degassing with nitrogen. The reaction was terminated by the addition of ethanolic KOH and after degassing with N2, the microsomal membranes were solubilized by heating at 60 °C for 30 minutes. The squalene was extracted into hexane, and the squalene was separated from all other radioactive molecules by passage over an activated alumina column. […] The per cent inhibition at a dose of 10 µM (or 1 µM) compared to controls with no test compound was determined. […]

| inhibition at 10 µM [%] | SMILES |
| --- | --- |
| 84 | CCCN(Cc1ccc(Oc2ccccc2)cc1)C(=O)[C@@H]1[C@H](C(=O)O)[C@@H](C(=O)NO)[C@H]1C(=O)N(CCC)Cc1ccc(Oc2ccccc2)cc1 (relative stereo) [Example 98C, (1α,2β,3β,4α)-1,2-Di[N-propyl-N-(4-phenoxybenzyl)aminocarbonyl]-3-[(hydroxyamino)carbonyl]cyclobutane-4-carboxylic Acid] |
| 78 | CCCN(Cc1ccc(Oc2ccccc2)cc1)C(=O)[C@@H]1[C@H](C(=O)O)[C@@H](C(=O)OC)[C@H]1C(=O)N(CCC)Cc1ccc(Oc2ccccc2)cc1 (relative stereo) [Example 95, (1α,2β,3β,4α)-1,2-Di[N-propyl-N-(4-phenoxybenzyl)aminocarbonyl]-3-(methoxycarbonyl)cyclobutane-4-carboxylic Acid] |
| 51 | CCCN(CCc1ccc(Oc2ccccc2)cc1)C(=O)[C@H]1[C@@H](C(=O)O)[C@H](C(=O)O)[C@@H]1C(=O)N(CCC)CCc1ccc(Oc2ccccc2)cc1 [Example 38H, (1α,2β,3β,4α)-1,2-Di[N-propyl-N-(2-(4-phenoxyphenyl)ethyl)aminocarbonyl]cyclobutane-3,4-dicarboxylic acid] |
| 45 | CCCN(Cc1ccc(Oc2ccccc2)cc1)C(=O)[C@H]1[C@@H](C(=O)O)[C@H](C(=O)O)[C@@H]1C(=O)NCc1ccc(Oc2ccccc2)cc1 [Example 64D, (1α,2β,3β,4α)-1-[N-Propyl-N-(4-phenoxybenzyl)aminocarbonyl]-2-[N-(4-phenoxybenzyl)aminocarbonyl]cyclobutane-3,4-dicarboxylic acid] |
| 84 | CCCN(Cc1ccc(Oc2ccccc2)cc1)C(=O)[C@@H]1[C@H](C(=O)O)[C@@H](NS(=O)(=O)C(F)(F)F)[C@H]1C(=O)N(CCC)Cc1ccc(Oc2ccccc2)cc1 (relative stereo) [Example 100C, (1α,2β,3β,4α)-1,2-Di[N-propyl-N-(4-phenoxybenzyl)aminocarbonyl]-3-[(trifluoromethanesulfonyl)amino]cyclobutane-4-carboxylic Acid] |

The next lines start with the compound.

| SMILES | inhibition at 10 µM [%] |
| --- | --- |
| CCCN(Cc1ccc(Oc2ccccc2)cc1)C(=O)[C@H]1[C@@H](C(=O)O)[C@H](C(=O)O)[C@@H]1C(=O)N(C)CC/C=C(\C)CCC=C(C)C [Example 62B, (1α,2β,3β,4α)-1-[N-Propyl-N-(4-phenoxybenzyl)aminocarbonyl]-2-[N-methyl-N-(homogeranyl)aminocarbonyl]cyclobutane-3,4-dicarboxylic acid] | 83 |
| CN(Cc1cccc(Oc2ccccc2)c1)C(=O)[C@H]1[C@@H](C(=O)O)[C@H](C(=O)O)[C@@H]1C(=O)N(C)Cc1cccc(Oc2ccccc2)c1 [Example 18, (1α,2β,3β,4α)-1,2-Di[N-methyl-N-(3-phenoxybenzyl)aminocarbonyl]cyclobutane-3,4-dicarboxylic acid] | 55 |
| CCCN(Cc1ccc(C(=O)c2ccccc2)cc1)C(=O)C1C(C(=O)O)C(C(=O)O)C1C(=O)N(CCC)Cc1ccc(C(=O)c2ccccc2)cc1 (stereo not drawn) [Example 118B, (1α,2β,3β,4α)-1,2-Di[N-propyl-N-(4-benzoylbenzyl)aminocarbonyl]cyclobutane-3,4-carboxylic acid] | 51 |
| CCCN(Cc1ccc(OC2CCCCC2)cc1)C(=O)[C@H]1[C@@H](C(=O)O)[C@H](C(=O)O)[C@@H]1C(=O)N(CCC)Cc1ccc(OC2CCCCC2)cc1 [Example 61B, (1α,2β,3β,4α)-1,2-Di[N-propyl-N-(4-cyclohexyloxybenzyl)aminocarbonyl]cyclobutane-3,4-dicarboxylic acid] | 43 |
| CCCN(Cc1ccc(Oc2ccccc2)s1)C(=O)C1C(C(=O)O)C(C(=O)O)C1C(=O)N(CCC)Cc1ccc(Oc2ccccc2)s1 (stereo not drawn) [Example 83B, (1α,2β,3β,4α)-1,2-Di[N-propyl-N-(5-phenoxythien-2-ylmethyl)aminocarbonyl]cyclobutane-3,4-dicarboxylic acid] | 85 |
| O=C(O)[C@H]1[C@H](C(=O)O)[C@H](C(=O)N(CC=CC=Cc2ccccc2)Cc2ccccc2)[C@H]1C(=O)N(CC=CC=Cc1ccccc1)Cc1ccccc1 [Example 36, (1α,2β,3β,4α)-1,2-Di[N-benzyl-N-(5-phenyl-2,4-pentadienyl)aminocarbonyl]cyclobutane-3,4-dicarboxylic acid] | 63 |
| CN(C(=O)[C@H]1[C@@H](C(=O)O)[C@H](C(=O)O)[C@@H]1C(=O)N(C)c1ccc(-c2ccccc2)cc1)c1ccc(-c2ccccc2)cc1 [Example 22, (1α,2β,3β,4α)-1,2-Di[N-methyl-N-biphenylamino-carbonyl]cyclobutane-2,4-dicarboxylic acid] | 20 |
| COc1ccc(CCN(Cc2ccc(Oc3ccccc3)cc2)C(=O)C2C(C(=O)O)C(C(=O)O)C2C(=O)N(CCc2ccc(OC)c(OC)c2)Cc2ccc(Oc3ccccc3)cc2)cc1OC (stereo not drawn) [Example 55, (1α,2β,3β,4α)-1,2-Di[N-(4-phenoxybenzyl)-N-(3,4-dimethoxyphenethyl)aminocarbonyl]cyclobutane-3,4-dicarboxylic acid] | 78 |
| COC(=O)CN(Cc1ccc(Oc2ccccc2)cc1)C(=O)[C@H]1[C@@H](C(=O)O)[C@H](C(=O)O)[C@@H]1C(=O)N(CC(=O)OC)Cc1ccc(Oc2ccccc2)cc1 [Example 59, (1α,2β,3β,4α)-1,2-Di[N-(4-phenoxybenzyl)-N-(methoxycarbonylmethyl)aminocarbonyl]cyclobutane-3,4-dicarboxylic acid] | 50 |
| O=C(O)C1C(C(=O)O)C(C(=O)N(Cc2ccccc2)Cc2ccccc2)C1C(=O)N(Cc1ccccc1)Cc1ccccc1 (stereo not drawn) [Example 121, (1α,2β,3β,4α)-1,2-Di[N,N-dibenzylaminocarbonyl]cyclobutane-3,4-dicarboxylic acid] | 44 |
| CCCN(Cc1ccc(Cn2cccc2)cc1)C(=O)C1C(C(=O)O)C(C(=O)O)C1C(=O)N(CCC)Cc1ccc(Cn2cccc2)cc1 (stereo not drawn) [Example 86D, (1α,2β,3β,4α)-1,2-Di[N-propyl-N-(4,(pyrrol-1-ylmethyl)benzyl)aminocarbonyl]cyclobutane-3,4-dicarboxylic acid] | 86 |
| CCCN(Cc1ccc(Oc2ccccc2)o1)C(=O)C1C(C(=O)O)C(C(=O)O)C1C(=O)N(CCC)Cc1ccc(Oc2ccccc2)o1 (stereo not drawn) [Example 82B, (1α,2β,3β,4α)-1,2-Di[N-propyl-N-(5-phenoxyfurfuryl)aminocarbonyl}cyclobutane-3,4-dicarboxylic acid] | 67 |
| C#CCN(Cc1ccc(Oc2ccccc2)cc1)C(=O)[C@H]1[C@@H](C(=O)O)[C@H](C(=O)O)[C@@H]1C(=O)N(CC#C)Cc1ccc(Oc2ccccc2)cc1 [Example 27, (1α,2β,3β,4α)-1,2-Di[N-propargyl-N-(4-phenoxybenzyl)aminocarbonyl]cyclobutane-3,4-dicarboxylic acid] | 79 |

Same assay, conditions: values marked * in Table 1: 1 µM test compound; rat liver microsomes, labelled farnesyl pyrophosphate, 10 minutes at 37 °C

| inhibition at 1 µM [%] | SMILES |
| --- | --- |
| 73 | CCCN(Cc1ccc(Oc2ccccc2)cc1)C(=O)C1C(NC(=O)CCC(=O)O)C(C(=O)O)C1C(=O)N(CCC)Cc1ccc(Oc2ccccc2)cc1 (stereo not drawn) [Example 75B, (1α,2β,3β,4α)-1,2-Di[N-propyl-N-(4-phenoxybenzyl)aminocarbonyl]-4-(3-carboxypropionylamino)cyclobutane-3-carboxylic acid] |
| 72 | CSCCN(Cc1ccc(Oc2ccccc2)cc1)C(=O)C1C(C(=O)O)C(C(=O)O)C1C(=O)N(CCSC)Cc1ccc(Oc2ccccc2)cc1 (stereo not drawn) [Example 41B, (1α,2β,3β,4α)-1,2-Di[N-(2-methylthioethyl)-N-(4-phenoxybenzyl)aminocarbonyl]cyclobutane-3,4-dicarboxylic acid] |
| 72 | C=CCN(Cc1ccc(Oc2ccccc2)cc1)C(=O)[C@H]1[C@@H](C(=O)O)[C@H](C(=O)O)[C@@H]1C(=O)N(CC=C)Cc1ccc(Oc2ccccc2)cc1 [Example 29, (1α,2β,3β,4α)-1,2-Di[N-allyl-N-(4-phenoxybenzyl)aminocarbonyl]cyclobutane-3,4-dicarboxylic acid] |

More lines, now with the values behind:

| SMILES | inhibition at 1 µM [%] |
| --- | --- |
| CCCN(Cc1ccc(Oc2nccs2)cc1)C(=O)C1C(C(=O)O)C(C(=O)O)C1C(=O)N(CCC)Cc1ccc(Oc2nccs2)cc1 (stereo not drawn) [Example 85] | 56 |
| CCCN(Cc1ccc(COc2ccccc2)cc1)C(=O)C1C(C(=O)O)C(C(=O)O)C1C(=O)N(CCC)Cc1ccc(COc2ccccc2)cc1 (stereo not drawn) [Example 69E, (1α,2β,3β,4α)-1,2-Di[N-propyl-N-[4-phenoxymethylbenzyl]aminocarbonyl]cyclobutane-3,4-dicarboxylic acid] | 56 |
| O=C(O)C1C(C(=O)O)C(C(=O)N(Cc2ccc(F)cc2)Cc2ccc(Oc3ccccc3)cc2)C1C(=O)N(Cc1ccc(F)cc1)Cc1ccc(Oc2ccccc2)cc1 (stereo not drawn) [Example 53B, (1α,2β,3β,4α)-1,2-Di[N-(4-fluorobenzyl)-N-(4-phenoxybenzyl)aminocarbonyl]cyclobutane-3.4-dicarboxylic acid] | 63 |

Source: patent publication EP0677039B1, “CYCLOBUTANE DERIVATIVES AS INHIBITORS OF […] SYNTHETASE AND PROTEIN […]” (Abbott Laboratories, priority 1993, dated 1995)
